Data taken from patent US20240360151A1 (SANOFI, priority 2023, published 2024).
Structures can show the parent of a compound that is named as a salt.

Target: T1, NLRP3 inflammasome (Homo sapiens, UniProt Q96P20)
T1 construct: endogenous in cells; host or cells: THP-1 monocytic cells
Experiment: IL-1β secretion assay (NLRP3 IC50) in LPS-primed, nigericin-activated THP-1 cells, HTRF
Format: cell-based
Details: monocytic THP-1 cells; LPS 10 ng/mL 3 h priming, then compound + nigericin 10 μM 2 h; relative IC50, 10 concentrations, geometric mean
Experimental: Monocytic THP-1 cells were maintained in RPMI 1640 media (Gibco 21875)+10% FBS, (Gibco 10500)+1% penicillin/streptomycin (Gibco 15140-122). Cells were then plated at 40,000 cells per well in 384-well cell culture plates (CoRNning 3542) and maintained with RPMI1640 (Gibco 11835)+5% FBS (Gibco 10500). Activation of the NLRP3 inflammasome requires both an NF-kB-dependent priming step and the addition of a NLRP3 activator. The priming step was induced by LPS (10 ng/mL, InvivoGen ref tlrl-3pelps) for 3 h at 37° C., then compound, in a 1:3 serial dilution series in DMSO (final concentration DMSO 0.1%), and the activator nigericin (Sigma Aldrich, ref: SML1779) 10 μM (final concentration) were added to the cells and co-incubated for 2 hours. 16 μL supernatant was removed, and IL-1β levels were monitored using an HTRF assay (Human IL1b Kits HTRF Cisbio ref: 62HILBPEH) according to manufacturers' instructions.
Data were expressed as percentage of inhibition (I %) as compared to a maximum signal control containing no small molecule (I %=0%) according to the formula: 1%=(1−((Sample−Min))/((Max−Min)))×100, where: • Sample: Signal obtained in the presence of each compound tested, • Max: Maximum signal in the absence of compound added, • Min: Minimum or background signal obtained in the absence of activation signal.
Relative IC50 (IC50 rel) were obtained from a dose response curve with 10 concentrations. Final IC50 rels are expressed as the geometric mean.
Relative IC50 values were estimated with Biost@t-SPEED v2.4 internal software based on SAS system using the 4-parameter logistic model according to Ratkovsky and Reedy (D. A. Ratkovsky, T. J. Reedy, Choosing near-linear parameters in the four parameters logistic model radioligands and related assays. Biometrics, 42 (1986), 575-582): Y=A+C/((1+exp(−B*(log(X)−M)))), where: • A: Lower asymptote (BOTTOM), • A+C: Upper asymptote (TOP), • M: the logarithm of the concentration estimated at the inflexion point (the logarithm of the relative IC50), • B: Slope at the inflexion point of the curve.

T1 sequence (Q96P20 whole entry): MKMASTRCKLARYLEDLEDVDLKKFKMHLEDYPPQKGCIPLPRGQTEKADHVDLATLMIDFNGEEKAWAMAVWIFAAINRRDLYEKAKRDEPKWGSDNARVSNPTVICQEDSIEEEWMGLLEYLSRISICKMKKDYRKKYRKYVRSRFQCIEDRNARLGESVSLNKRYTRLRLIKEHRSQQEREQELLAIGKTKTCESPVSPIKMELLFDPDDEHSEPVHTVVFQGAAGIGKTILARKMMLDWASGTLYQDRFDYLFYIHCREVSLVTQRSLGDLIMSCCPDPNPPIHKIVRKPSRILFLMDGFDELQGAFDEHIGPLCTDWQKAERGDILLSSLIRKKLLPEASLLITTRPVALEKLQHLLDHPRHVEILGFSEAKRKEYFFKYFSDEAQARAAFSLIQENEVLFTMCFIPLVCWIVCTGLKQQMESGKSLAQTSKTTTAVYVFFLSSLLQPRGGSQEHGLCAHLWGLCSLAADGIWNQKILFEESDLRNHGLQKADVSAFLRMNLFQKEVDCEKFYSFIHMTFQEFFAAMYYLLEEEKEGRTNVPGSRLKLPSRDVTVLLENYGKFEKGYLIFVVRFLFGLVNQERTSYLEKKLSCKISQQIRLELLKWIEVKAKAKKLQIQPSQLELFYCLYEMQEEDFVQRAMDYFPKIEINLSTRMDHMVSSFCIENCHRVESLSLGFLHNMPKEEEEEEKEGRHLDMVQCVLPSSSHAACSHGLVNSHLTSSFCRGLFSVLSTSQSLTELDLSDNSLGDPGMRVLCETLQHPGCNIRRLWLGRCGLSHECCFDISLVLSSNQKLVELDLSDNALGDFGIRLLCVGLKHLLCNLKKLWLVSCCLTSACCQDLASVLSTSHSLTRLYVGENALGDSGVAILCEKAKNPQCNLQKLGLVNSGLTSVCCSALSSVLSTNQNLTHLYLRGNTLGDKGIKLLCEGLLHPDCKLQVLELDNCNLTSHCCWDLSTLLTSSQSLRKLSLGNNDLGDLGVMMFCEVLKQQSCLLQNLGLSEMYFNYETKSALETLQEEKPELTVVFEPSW

Row | SMILES | IC50 [nM]
1 | Cc1cc(C)c(-c2ccc(N3CCO[C@@H]4COCC[C@@H]43)nn2)c(O)c1 (racemic) [Example 111, 2-[6-[rac-(4aS,8aS)-3,4a,5,7,8,8a-hexahydro-2H-pyrano[3,4-b][1,4]oxazin-1-yl]pyridazin-3-yl]-3,5-dimethyl-phenol] | 496
2 | Cc1cc(C)c(-c2ccc(N3CCO[C@@H]4CNC[C@H]43)nn2)c(O)c1 (racemic) [Example 190, 2-[6-[rac-(4aR,7aR)-3,4a,5,6,7,7a-hexahydro-2H-pyrrolo[3,4-b][1,4]oxazin-4-yl]pyridazin-3-yl]-3,5-dimethylphenol] | 1150
3 | CC(=O)N1C[C@@H]2OCCN(c3ccc(-c4c(C)cc(C)cc4O)nn3)[C@H]2C1 (racemic) [Example 257, 1-[rac-(4aS,7aS)-4-[6-(2-hydroxy-4,6-dimethylphenyl)pyridazin-3-yl]-2,3,4a,5,7,7a-hexahydropyrrolo[3,4-b][1,4]oxazin-6-yl]ethanone] | 7490
4 | Cc1cc(C(F)(F)F)cc(O)c1-c1ccc(N2CCO[C@@H]3CN(C)C[C@H]32)nn1 (racemic) [Example 289, 3-methyl-2-[6-[rac-(4aR,7aR)-6-methyl-2,3,4a,5,7,7a-hexahydropyrrolo[3,4-b][1,4]oxazin-4-yl]pyridazin-3-yl]-5-(trifluoromethyl)phenol] | 140
5 | Cc1cc(C)c(-c2ccc(N3CCC[C@@H]4CCN(C)C(=O)[C@@H]43)nn2)c(O)c1 (racemic) [Example 290, rac-(4aR,8aR)-1-[6-(2-hydroxy-4,6-dimethyl-phenyl)pyridazin-3-yl]-7-methyl-3,4,4a,5,6,8a-hexahydro-2H-1,7-naphthyridin-8-one] | 145
6 | Cc1cc(C)c(-c2ccc(N3CCC[C@@H]4CCNC(=O)[C@@H]43)nn2)c(O)c1 (racemic) [Example 300, rac-(4aR,8aR)-1-[6-(2-hydroxy-4,6-dimethyl-phenyl)pyridazin-3-yl]-2,3,4,4a,5,6,7,8a-octahydro-1,7-naphthyridin-8-one] | 177
7 | Cc1cc(C(F)(F)F)cc(O)c1-c1ccc(N2CCO[C@@H]3CNC[C@H]32)nn1 (racemic) [Example 318, 3-methyl-2-[6-[rac-(4aR,7aR)-3,4a,5,6,7,7a-hexahydro-2H-pyrrolo[3,4-b][1,4]oxazin-4-yl]pyridazin-3-yl]-5-(trifluoromethyl)phenol; hydrochloride] | 883
8 | Cc1cc(C(F)(F)F)cc(O)c1-c1ccc(N2CCO[C@H]3CNC[C@H]32)nn1 (racemic) [Example 320, 3-methyl-2-[6-[rac-(4aR,7aS)-3,4a,5,6,7,7a-hexahydro-2H-pyrrolo[3,4-b][1,4]oxazin-4-yl]pyridazin-3-yl]-5-(trifluoromethyl)phenol] | 116
9 | CC(=O)N1C[C@@H]2OCCN(c3ccc(-c4c(C)cc(C(F)(F)F)cc4O)nn3)[C@@H]2C1 (racemic) [Example 335, 1-[rac-(4aR,7aS)-4-[6-[2-hydroxy-6-methyl-4-(trifluoromethyl)phenyl]pyridazin-3-yl]-2,3,4a,5,7,7a-hexahydropyrrolo[3,4-b][1,4]oxazin-6-yl]ethanone] | 481
10 | CC(=O)N1C[C@@H]2[C@@H](C1)OCCN2c1ccc(-c2c(C)cc(C(F)(F)F)cc2O)nn1 (racemic) [Example 337, 1-[rac-(4aR,7aR)-4-[6-[2-hydroxy-6-methyl-4-(trifluoromethyl)phenyl]pyridazin-3-yl]-2,3,4a,5,7,7a-hexahydropyrrolo[3,4-b][1,4]oxazin-6-yl]ethanone] | 2880
11 | Cc1cc(C(F)(F)F)cc(O)c1-c1ccc(N2CC[C@@H]3NCC[C@@H]32)nn1 (racemic) [Example 346, 3-methyl-2-[6-[rac-(3aS,6aS)-2,3,3a,5,6,6a-hexahydro-1H-pyrrolo[3,2-b]pyrrol-4-yl]pyridazin-3-yl]-5-(trifluoromethyl)phenol;hydrochloride] | 212
12 | Cc1cc(C(F)(F)F)cc(O)c1-c1ccc(N2CC[C@@H]3CCN(C)C[C@H]32)nn1 (racemic) [Example 364, 2-[6-[rac-(3aS,7aS)-6-methyl-3,3a,4,5,7,7a-hexahydro-2H-pyrrolo[2,3-c]pyridin-1-yl]pyridazin-3-yl]-3-methyl-5-(trifluoromethyl)phenol] | 858
13 | CCN1CC2OCCN(c3ccc(-c4c(C)cc(C(F)(F)F)cc4O)nn3)C2C1 (racemic) [Example 376, 3-methyl-2-[6-[rac-(4aR,7aR)-6-ethyl-2,3,4a,5,7,7a-hexahydropyrrolo[3,4-b][1,4]oxazin-4-yl]pyridazin-3-yl]-5-(trifluoromethyl)phenol] | 180

More lines, now with the values ahead:

Row | IC50 [nM] | SMILES
14 | 296 | CC(=O)N1CC[C@H]2[C@@H]1CCN2c1ccc(-c2c(C)cc(C(F)(F)F)cc2O)nn1 (racemic) [Example 377, 1-[rac-(3aS,6aS)-1-[6-[2-hydroxy-6-methyl-4-(trifluoromethyl)phenyl]pyridazin-3-yl]-2,3,3a,5,6,6a-hexahydropyrrolo[3,2-b]pyrrol-4-yl]ethanone]
15 | 310 | CC(=O)N1CC[C@H]2CCN(c3ccc(-c4c(C)cc(C)cc4O)nn3)[C@H]2C1 (racemic) [Example 394, 1-[rac-(3aR,7aR)-1-[6-(2-hydroxy-4,6-dimethyl-phenyl)pyridazin-3-yl]-3,3a,4,5,7,7a-hexahydro-2H-pyrrolo[2,3-c]pyridin-6-yl]ethanone]
16 | 366 | Cc1cc(C)c(-c2ccc(N3CCO[C@@H]4CCOC[C@@H]43)nn2)c(O)c1 (racemic) [Example 403, 3,5-dimethyl-2-[6-[rac-(4aS,8aR)-3,4a,5,7,8,8a-hexahydro-2H-pyrano[4,3-b][1,4]oxazin-4-yl]pyridazin-3-yl]phenol]
17 | 1230 | Cc1cc(C)c(-c2ccc(N3CCOC4CCOCC43)nn2)c(O)c1 (racemic) [Example 421, 3,5-dimethyl-2-[6-[rac-(4aS,8aS)-3,4a,5,7,8,8a-hexahydro-2H-pyrano[4,3-b][1,4]oxazin-4-yl]pyridazin-3-yl]phenol]
18 | 411 | Cc1cc(C(F)(F)F)cc(O)c1-c1ccc(N2CCO[C@@H]3CCOC[C@@H]32)nn1 (racemic) [Example 438, 3-methyl-2-[6-[rac-(4aS,8aR)-3,4a,5,7,8,8a-hexahydro-2H-pyrano[4,3-b][1,4]oxazin-4-yl]pyridazin-3-yl]-5-(trifluoromethyl)phenol]
19 | 370 | Cc1cc(C(F)(F)F)cc(O)c1-c1ccc(N2CCO[C@H]3CCOC[C@@H]32)nn1 (racemic) [Example 448, 3-methyl-2-[6-[rac-(4aS,8aS)-3,4a,5,7,8,8a-hexahydro-2H-pyrano[4,3-b][1,4]oxazin-4-yl]pyridazin-3-yl]-5-(trifluoromethyl)phenol]
20 | 5 | CCc1cc(C(F)(F)F)cc(O)c1-c1ccc(N2CC[C@@H]3CCN(C)C[C@@H]32)nn1 (racemic) [Example 452, 2-[6-[rac-(3aS,7aR)-6-methyl-3,3a,4,5,7,7a-hexahydro-2H-pyrrolo[2,3-c]pyridin-1-yl]pyridazin-3-yl]-3-ethyl-5-(trifluoromethyl)phenol]
21 | 2 | CCN1CC[C@H]2CCN(c3ccc(-c4c(O)cccc4C(F)(F)F)nn3)[C@H]2C1 (racemic) [Example 458, 2-[6-[rac-(3aS,7aR)-6-ethyl-3,3a,4,5,7,7a-hexahydro-2H-pyrrolo[2,3-c]pyridin-1-yl]pyridazin-3-yl]-3-(trifluoromethyl)phenol]
22 | 1 | CCc1cc(C)cc(O)c1-c1ccc(N2CC[C@@H]3CCN(C)C[C@@H]32)nn1 (racemic) [Example 459, 3-ethyl-5-methyl-2-[6-[rac-(3aS,7aR)-6-methyl-3,3a,4,5,7,7a-hexahydro-2H-pyrrolo[2,3-c]pyridin-1-yl]pyridazin-3-yl]phenol]
23 | < 0.3 | CCN1CC[C@H]2CCN(c3cc(C)c(-c4ccc(C)cc4O)nn3)[C@H]2C1 (racemic) [Example 460, 2-[6-[rac-(3aS,7aR)-6-ethyl-3,3a,4,5,7,7a-hexahydro-2H-pyrrolo[2,3-c]pyridin-1-yl]-4-methyl-pyridazin-3-yl]-5-methyl-phenol]
24 | 25 | Cc1cc(C(F)(F)F)cc(O)c1-c1ccc(N2CC[C@H]3[C@@H]2CCN3C)nn1 (racemic) [Example 484, 3-methyl-2-[6-[rac-(3aS,6aS)-1-methyl-2,3,3a,5,6,6a-hexahydropyrrolo[3,2-b]pyrrol-4-yl]pyridazin-3-yl]-5-(trifluoromethyl)phenol]
25 | 4.9 | Cc1ccc(-c2nnc(N3CC[C@@H]4CCN(C(C)C)C[C@@H]43)cc2C)c(O)c1 (racemic) [Example 528, 5-methyl-2-[4-methyl-6-[rac-(3aS,7aR)-6-isopropyl-3,3a,4,5,7,7a-hexahydro-2H-pyrrolo[2,3-c]pyridin-1-yl]pyridazin-3-yl]phenol]
